The source of these data is patent EP4008716A1, “NOVEL INHIBITORS OF INSULIN-LIKE GROWTH FACTOR 2 MRNA BINDING PROTEINS” (Martin-Luther-Universität Halle-Wittenberg, priority 2020, dated 2022).

In the experiment the test system is ES-2 cells. Put plainly: Cytotoxicity / cell vitality by cell confluency (IncuCyte live-cell imaging) relative to DMSO controls. To be noted: Homo sapiens, ovarian cancer-derived ES-2 cells, 72 h post compound application, eleven concentrations, two-fold dilution from 20µM, mean of three independent studies. The format is cell-based. The method, then:
All novel inhibitors were explored for their cytotoxic activity in ovarian cancer-derived ES-2 cells. In these cell models, BTYNB was prior shown to impair cell vitality and metastatic potential in vitro and cancer mouse models (15). For the respective studies ES-2 cells were plated and exposed to increasing concentration of the compounds and cell vitality was monitored by determining cell confluency relative to DMSO controls using an IncuCyte cell imaging system, essentially as described recently (15). For determining the impact of the developed compounds on ES-2 cell vitality, cells were cultured in Dulbecco's modified eagle medium (DMEM) containing phenol red, 4.5 g/L D-Glucose, 0.11 g/L sodium pyruvate, 10% (v/v) fetal bovine serum (FBS) and 2 mM GlutaMAX (Sigma-Aldrich, Darmstadt, Germany). Cells were maintained in under humidified conditions at 37 °C, 5% CO2. For cytotoxicity studies, cells were seeded in 96-well flat-bottom plates at 2 x 10^3 cells per well in 100 µL supplemented DMEM and incubated for 24 h prior to addition of BTYNB derivatives. Compounds were analyzed at eleven concentrations using a two-fold dilution with an initial compound concentration of 20µM in DMSO (solvent). Cells treated with 0.002% (v/v) DMSO served as controls. Cytotoxicity of compound concentrations was determined 72 h post compound application by monitoring cell confluency using an IncuCyte Systems for Live-Cell Imaging. Cell confluency was determined with the IncuCyte 2019B Rev2 software. Confluency of controls was set to 1 (100%) and altered confluency at distinct compound concentrations was calculated as relative confluency. The mean relative confluency at compound concentrations was analyzed in three independent studies with three technical replicates each. The mean values of three analyses were plotted against the logarithmic concentration of compounds and fitted by the non-linear module [Sigmoidal, 4PL, X is log(concentration)] using GraphPad Prism V9(86) for macOS. In Table 1 compounds with EC50 values, indicating the potency of the 58 developed compounds to impair cell vitality, are listed. […] Table 2: EC-values of the synthesized compounds of formula (I)
For orientation: EC50 means the midpoint of the concentration-response curve. Lower therefore signals greater potency. On to `Cc1ccc(C(=O)Nc2sc(Cc3ccccc3)cc2C(N)=O)o1` [compound 35, N-[3-(Aminocarbonyl)-5-benzyl-2-thienyl]-5-methyl-2-furamide], for which the EC50 stood at 1340 nM.
The figure for `NC(=O)c1cc(Cc2ccccc2)sc1NC(=O)c1ccccc1` [compound 37, 2-(Benzoylamino)-5-benzyl-3-thiophenecarboxamide] is 2270 nM; for `NC(=O)c1cc(Cc2ccccc2)sc1NC(=O)c1cccc(COc2ccc(Cl)cc2Cl)c1` [compound 50, 5-Benzyl-2-{3-[(2,4-dichlorophenoxy)methyl]benzamido}thiophene-3-carboxamide] it is 47 nM.
`NC(=O)c1ccccc1NC(=O)CN1CCN(Cc2ccccc2Cl)CC1` [compound 24, 2-({[4-(2-Chlorobenzyl)-1-piperazinyl]acetyl}amino)benzamide] came in with an EC50 of 9580 nM.
Then `COc1ccc(C(=O)Nc2sc(Cc3ccccc3)cc2C(N)=O)cc1` [compound 41, 5-Benzyl-2-[(4-methoxybenzoyl)amino]-3-thiophenecarboxamide], with 1940 nM.
The figure for `COc1ccc(C(=O)Nc2sc(Cc3ccccc3)cc2C(N)=O)cc1OCc1ccccc1Cl` [compound 48, 2-[3-(2-Chlorobenzyloxy)-4-methoxybenzamido]-5-benzylthiophene-3-carboxamide] is 1100 nM; for `NC(=O)c1cc(Cc2ccccc2)sc1NC(=O)CN1CCN(Cc2ccccc2Cl)CC1` [compound 54, 2-{2-[4-(2-Chlorobenzyl)piperazin-1-yl]acetamido}-5-benzylthiophene-3-carboxamide] it is 7110 nM.
The figure for `NC(=O)c1ccccc1NC(=O)c1ccc(Cl)s1` [compound 13, N-(2-carbamoylphenyl)-5-chlorothiophene-2-carboxamide] is 2300 nM; for `NC(=O)c1cc(Cc2ccccc2)sc1NC(=O)CCc1ccccc1` [compound 39, 5-Benzyl-2-[(3-phenylpropanoyl)amino]-3-thiophenecarboxamide] it is 6210 nM.
For the compound `NC(=O)c1ccsc1NC(=O)CN1CCN(Cc2ccc(Cl)c(Cl)c2)CC1` [compound 56, 2-{2-[4-(3,4-Dichlorobenzyl)piperazin-1-yl]acetamido}thiophene-3-carboxamide], the EC50 is 781 nM.
The figure for `CCc1cc(C(=O)Nc2sccc2C(N)=O)cs1` [compound 15, 2-{[(5-Ethyl-3-thienyl)carbonyl]amino}-3-thiophenecarboxamide] is 2950 nM; for `COc1ccc(C(=O)Nc2sc(C(C)C)cc2C(N)=O)cc1COc1ccc(Br)cc1` [compound 58, 2-({3-[(4-Bromophenoxy)methyl]-4-methoxybenzoyl}amino)-5-isopropyl-3-thiophenecarboxamide] it is 8340 nM; for `NC(=O)c1ccccc1NC(=O)CN1CCN(Cc2ccc(F)cc2Cl)CC1` [compound 25, 2-({[4-(2-Chloro-4-fluorobenzyl)-1-piperazinyl]acetyl}amino)benzamide] it is 3170 nM.
For the compound `COc1ccc(C(=O)Nc2sc(Cc3ccccc3)cc2C(N)=O)cc1COc1cccc(Cl)c1Cl` [compound 45, 5-Benzyl-2-({3-[(2,3-dichlorophenoxy)methyl]-4-methoxybenzoyl}amino)-3-thiophenecarboxamide], the EC50 worked out at 401 nM.
Then `CCc1c(C(=O)Nc2sc(Cc3ccccc3)cc2C(N)=O)csc1C` [compound 33, 5-Benzyl-2-{[(4-ethyl-5-methyl-3-thienyl)carbonyl]amino}-3-thiophenecarboxamide], with 5060 nM; and `COc1ccc(C(=O)Nc2ccccc2C(N)=O)cc1Cl` [compound 16, N-[2-(aminocarbonyl)phenyl]-3-chloro-4-methoxybenzamide], with 5840 nM; and `NC(=O)c1cc(Cc2ccccc2)sc1NC(=O)c1ccc(COc2ccc(Br)cc2)cc1` [compound 43, 5-Benzyl-2-({4-[(4-bromophenoxy)methyl]benzoyl}amino)-3-thiophenecarboxamide], with 1190 nM.
The figure for `Cc1cc2c(=O)[nH]c(Cc3ccccc3)nc2s1` [compound 7, 2-Benzyl-6-methylthieno[2,3-d]pyrimidin-4(3H)-one] is 4840 nM; for `CNC(=O)c1ccccc1NC(=O)c1cc(C)c(C)s1` [compound 8, 4,5-Dimethyl-N-[2-(methylcarbamoyl)phenyl]thiophene-2-carboxamide] it is 2830 nM.
Then `NC(=O)c1c(NC(=O)c2ccc(Cl)s2)sc2c1CCCC2` [compound 30, 2-{[(5-Chloro-2-thienyl)carbonyl]amino}-4,5,6,7-tetrahydro-1-benzothiophene-3-carboxamide], with 1470 nM.
In turn, `COc1cc(C=CC(=O)Nc2ccccc2C(N)=O)ccc1OCc1ccccc1` [compound 28, 2-({3-[4-(Benzyloxy)-3-methoxyphenyl]acryloyl}amino)benzamide] displayed a half-maximal effective concentration (EC50) of 1880 nM.
Then `COc1ccc(C(=O)Nc2sccc2C(N)=O)cc1COc1ccccc1Cl` [compound 27, 2-{3-[(2-Chlorophenoxy)methyl]-4-methoxybenzamido}thiophene-3-carboxamide], with 1660 nM; and `COc1ccc(C(=O)Nc2sc(Cc3ccccc3)cc2C(N)=O)cc1COc1cccc(Cl)c1` [compound 51, 5-Benzyl-2-{3-[(3-chlorophenoxy)methyl]-4-methoxybenzamido}thiophene-3-carboxamide], with 355 nM; and `COc1ccc(C(=O)Nc2sc(Cc3ccccc3)cc2C(N)=O)cc1COc1ccc(Cl)cc1` [compound 52, 5-Benzyl-2-{3-[(4-chlorophenoxy)methyl]-4-methoxybenzamido}thiophene-3-carboxamide], with 1020 nM.
Then `NC(=O)c1ccsc1NC(=O)c1cccs1` [compound 10, N-[3-(aminocarbonyl)-2-thienyl]-2-thiophenecarboxamide], with 3230 nM; and `NC(=O)c1cc(Cl)ccc1OCC(=O)c1ccc(Cl)s1` [compound 9, 5-chloro-2-[2-(5-chlorothiophen-2-yl)-2-oxoethoxy]benzamide], with 1330 nM; and `NC(=O)c1cc(Cc2ccccc2)sc1NC(=O)c1ccc(Cl)s1` [compound 36, N-[3-(Aminocarbonyl)-5-benzyl-2-thienyl]-5-chloro-2-thiophenecarboxamide], with 1660 nM.
The figure for `COc1cc(-c2nc3ccccc3c(=O)[nH]2)ccc1OCc1ccccc1[N+](=O)[O-]` [compound 3, 2-{3-Methoxy-4-[(2-nitrobenzyl)oxy]phenyl}-4(3H)-quinazolinone] is 476 nM; for `COc1ccc(C(=O)Nc2ccccc2C(N)=O)cc1COc1ccccc1Cl` [compound 26, 2-{3-[(2-Chlorophenoxy)methyl]-4-methoxybenzamido}benzamide] it is 1100 nM.
`COc1ccc(C(=O)Nc2sc(Cc3ccccc3)cc2C(N)=O)cc1COc1c(Cl)cccc1Cl` [compound 53, 5-Benzyl-2-{3-[(2,6-dichlorophenoxy)methyl]-4-methoxybenzamido}thiophene-3-carboxamide] showed an EC50 of 2600 nM.
Turning to `NC(=O)c1cc(Cc2ccccc2)sc1NC(=O)c1ccc(COc2ccc(Cl)cc2Cl)s1` [compound 49, N-(5-Benzyl-3-carbamoylthiophen-2-yl)-5-[(2,4-dichlorophenoxy)methyl]thiophene-2-carboxamide], the EC50 worked out at 560 nM.
The figure for `NC(=O)c1cc(Cc2ccccc2)sc1NC(=O)c1cccs1` [compound 31, N-[3-(aminocarbonyl)-5-benzyl-2-thienyl]-2-thiophenecarboxamide] is 671 nM.
